The source of these data is patent publication US11958821B2, “Phenethylamine compounds salts, polymorphic forms and methods of use thereof” (Terran Biosciences Inc., priority 2021, dated 2024).

Data set [1] in a line: Dynamic vapor sorption (DVS) analysis with post-DVS XRPD. Type of data set: physicochemical. The procedure: DVS analysis was carried out using a TA Instruments Q5000 Dynamic Vapor Sorption analyzer. The instrument was calibrated with standard weights and a sodium bromide standard for humidity. Approximately 5-25 mg of sample was loaded into a metal-coated quartz pan for analysis. The sample was analyzed at 25° C. with a maximum equilibration time of one hour in 10% relative humidity (RH) steps from 5 to 95% RH (adsorption cycle) and from 95 to 5% RH (desorption cycle). The movement from one step to the next occurred either after satisfying the equilibrium criterion of 0.01% weight change or, if the equilibrium criterion was not met, after one hour. The percent weight change values were calculated using Microsoft Excel®.

Data set [2] relates to participants diagnosed with at least moderate post-traumatic stress disorder (PTSD). The data set is described as follows: Double-blind, randomized, placebo-controlled clinical trial of MDE-assisted psychotherapy in PTSD. The note with it: for Daytime sleepiness (ESS) / Clinician-rated functional impairment score (SDS) / Depression (HAM-D) / Change in CAPS-5 assessment: Study Conclusion; for Clinician-rated functional impairment score (SDS) / Depression (HAM-D) / Change in CAPS-5 assessment: vs placebo; for Change in CAPS-5 assessment: hydrochloride salt with psychotherapy; for Total dosage of drug to achieve significant mean reduction in CAPS-5: vs racemic MDE-treated subgroup. Format: in vivo, human. As to the method:
A multicenter, randomized, double-blind, placebo-controlled trial is conducted to assess the efficacy and safety of MDE-assisted psychotherapy versus psychotherapy with placebo control in participants diagnosed with at least moderate post-traumatic stress disorder (PTSD).
This multicenter, randomized, double-blind, placebo-controlled trial is conducted at various sites in the United States with IRB approval from each study site. A flexible dose of MDE hydrochloride salt or placebo, followed by a supplemental half-dose unless contraindicated by patient's previous response or medical history, is also administered during the Treatment Period with psychotherapy in at least 3 blinded monthly Experimental Sessions. The Supplemental Dose extends the duration of drug effects on the participants during an Experimental Session. MDE test groups are further subdivided into specific groups receiving only racemic MDE hydrochloride salt, S-MDE hydrochloride salt, or R-MDE hydrochloride salt. An optional Risk Evaluation and Mitigation Strategy (REMS) Protocol may be implemented for the racemic MDE, R-MDE, and placebo-groups. The Treatment Period lasts for approximately 12 weeks. During the Treatment Period, each Experimental Session is followed by three Intervening Sessions of non-drug psychotherapy. Each Experimental Session involves an overnight stay. The Primary Outcome measure, the change in Clinician Administered PTSD Scale for DSM-5 (CAPS-5), is determined by a blinded Independent Rater (IR) pool multiple times throughout the study. The study consists of separate periods for each participant. Initially, prospective participants undergo a Screening Period involving an initial eligibility assessment, a medical history intake, informed consent, and enrollment of eligible participants. Next, a Preparation Period is undertaken for enrolled participants involving medication tapering and clinical baseline assessments to confirm each participant meets enrollment criteria. As part of the Preparation Period, a detailed assessment of co-morbidities to PTSD is recorded. Participants may remain on prescribed courses of selective serotonin reuptake inhibitor (SSRI) or serotonin and norepinephrine reuptake inhibitor (SNRI) treatment. Dosages and/or frequency of administration of a prescribed SSRI or SNRI may be adjusted to fit within study parameters. Participants may be required to taper a prescribed course of medication in order to maintain eligibility within the study. The Treatment Period consists of three monthly Experimental Sessions and associated Intervening Sessions of integrative behavioral psychotherapy. The Treatment Period lasts approximately 12 weeks. Following the Treatment Period is a Follow-up Period and Study Conclusion. During the Follow-up Period and Study Conclusion, participants complete 4 weeks with no study visits, followed by a Study Conclusion visit.
This study compares the effects of three blinded Experimental Sessions of psychotherapy in combination with flexible doses of MDE or placebo administered as described below. Non-drug preparatory and intervening psychotherapy sessions are also included. Patient's weight is determined for dosage calculation. Initial dose is 100 mg unless this will result in a dosage of less than 1.5 mg/kg of patient weight. Initial dose thereby adjusted upward in 25 mg increments to deliver the lowest dose possible of at least 1.5 mg/kg of patient weight. Initial dose for Experimental Session 2 and 3 is cumulative dose calculated by adding the initial dose plus REMS protocol dose used the previous Experimental Session for each patient.
Randomization occurs prior to the initiation of Experimental Session 1. Each participant is provided the next randomized number in a sequence by a blinded study monitor. Participants are then randomized, according to a computer-generated randomization schedule, 1:1:1:1 to racemic MDE, S-MDE, R-MDE, or placebo. […]

The test system of another data set is Male Sprague-Dawley rats. Description: Rat elevated zero-maze study with racemic MDE, R-MDE, S-MDE and chlordiazepoxide. The note with it: for Percentage of time spent in the open arms (% TO), significance vs placebo / Percentage of time spent in the open arms (% TO), trend: 2.5-30 mg/kg ip.
Setting [3] is: highest dose, ip, 30 min before 5-min test.

Experimental for Male Sprague-Dawley rats: A reduction in the amount of activity on the open areas is considered to reflect an increase in anxiety. The ethologically-based behavior, stretched attend postures (SAP) from closed to open quadrants, is assessed as an index of anxiety. […] Animals
Male Sprague-Dawley 200-250 g (Envigo UK) rats were used. Animals were group-housed (5 per cage; cage size: 40×40×20 cm) in a temperature-controlled environment (22±2° C.), under a 12 h light-dark cycle (lights on: 08:00 hours) for one week prior to testing. Food and water were freely available. Number of animals per group=5.
The elevated 0-maze comprises a black Perspex annular platform (105 cm diameter, 10 cm width) elevated to 65 cm above ground level, divided equally into four quadrants. Two opposite quadrants are enclosed by clear red Perspex walls (27 cm high) on both the inner and outer edges of the platform, while the remaining two opposite quadrants are surrounded only by a Perspex “lip” (1 cm high) which serves as a tactile guide to animals on these open areas.
Subjects were weighed and tail marked before being injected. After a specified pretreatment time, subjects were placed in a closed quadrant and a 5-min test period were recorded on videotape for subsequent analysis. The maze was cleaned with 5% methanol/water solution and dried thoroughly between test sessions. Behavioural measures comprise percentage time spent on the open areas (% TO) and frequency of stretched attend postures (SAP) from closed to open quadrants. Animals are scored as being in the open area when all four paws were in an open quadrant and in the closed area only when all four paws have passed over the open-closed divide.
Thirty min later at T=0, rats were individually placed in a closed arm of the zero-maze and behavior was assessed by a “blind” observer using remote video monitoring over the subsequent 5 min. The animal was then removed and the maze carefully wiped with 5% methanol/water solution before the next test was begun.
Thirty min later at T=0, rats were individually placed in a closed arm of the zero-maze and behavior assessed by a “blind” observer using remote video monitoring over the subsequent 5 min. The animal was then removed and the maze carefully wiped with 5% methanol/water solution before the next test was begun.

As to `CCC(Cc1ccc2c(c1)OCO2)NC.O=C(O)/C=C\C(=O)O` (stereo not drawn) [MBDB maleate Form 1], in data set [1] (25° C., 5 to 95% RH, listed as MBDB Maleate Form 1), the “Hygroscopicity by DVS” value is listed as “slightly hygroscopic”. For the same molecule, the DVS weight gain in data set [1] (at 95% RH) was found to be 0.6%. Moreover, in data set [1] (solids after DVS analysis), the “Post-DVS XRPD (form change)” value is reported as “no form change”.
In the case of `CCNC(C)Cc1ccc2c(c1)OCO2` (racemic) [racemic MDE, N-ethyl-3,4-methylenedioxyamphetamine], in data set [2], the “Daytime sleepiness (ESS)” value is “significant improvement in lessening daytime sleepiness”. Besides, the “Clinician-rated functional impairment score (SDS)” value in data set [2] is recorded as “significant improvement in clinician-rated functional impairment score”. The “Depression (HAM-D)” value in data set [2] is listed as “significant improvement depression”. In addition, the “Change in CAPS-5 assessment” value in data set [2] is “significant mean reduction in CAPS-5 assessment compared to the placebo group”. For the same molecule, the “Frequency of stretched attend postures (SAP)” value (“Frequency” for short) in the data set with Male Sprague-Dawley rats (2.5 mg/kg ip) is “significant increase in SAPs”; with Male Sprague-Dawley rats (5 mg/kg ip) it was “did not show any difference from placebo”; with Male Sprague-Dawley rats (10 mg/kg ip), “dose dependent decrease in SAPs and a significant anxiolytic effect”; in the data set on Male Sprague-Dawley rats (15 mg/kg ip) it was “dose dependent decrease in SAPs and a significant anxiolytic effect”; with Male Sprague-Dawley rats (30 mg/kg ip) it was “dose dependent decrease in SAPs and a significant anxiolytic effect”; in the data set with Male Sprague-Dawley rats (setting [3]) it was “decreased the frequency of SAPs as effectively as the benzodiazepine chlordiazepoxide”. Further, in the data set with Male Sprague-Dawley rats, the “Percentage of time spent in the open arms (% TO), significance vs placebo” value (“Percentage … (% TO), significance vs placebo” below) was “did not show significant changes when compared to placebo”. For the same molecule, the “Percentage of time spent in the open arms (% TO), trend” value in the data set on Male Sprague-Dawley rats is listed as “trended towards reduced time in the open arms”.
As for `CCN[C@H](C)Cc1ccc2c(c1)OCO2` [R-MDE, (R)—N-ethyl-3,4-methylenedioxyamphetamine], in data set [2], the “Daytime sleepiness (ESS)” value is on record as “significant improvement in lessening daytime sleepiness”, the “Clinician-rated functional impairment score (SDS)” value was “significant improvement in clinician-rated functional impairment score”, the “Depression (HAM-D)” value is “significant improvement depression” and the “Change in CAPS-5 assessment” value is on record as “significant mean reduction in CAPS-5 assessment compared to the placebo group”. For the same molecule, in data set [2], the “Total dosage of drug to achieve significant mean reduction in CAPS-5” value is reported as “lower total dosage of drug compared to the racemic MDE-treated subgroup”. Moreover, the “Frequency” value with Male Sprague-Dawley rats (2.5 mg/kg ip) is listed as “increase in the number of SAPs at the 2.5 mg/kg dose which trended towards significance”. Further, in the data set on Male Sprague-Dawley rats (5 mg/kg ip), the “Frequency” value is listed as “increase in SAPs at the 5 mg/kg dose range as well which trended toward significance”. Also, in the data set on Male Sprague-Dawley rats (10 mg/kg ip), the “Frequency” value is “not significantly different from placebo”. For the same molecule, the “Frequency” value in the data set on Male Sprague-Dawley rats (15 mg/kg ip) is listed as “not significantly different from placebo”. Also, the “Frequency” value in the data set on Male Sprague-Dawley rats (30 mg/kg ip) is “significant reduction in SAPs”. In the data set on Male Sprague-Dawley rats, the “Percentage … (% TO), significance vs placebo” value is “did not show significant changes when compared to placebo” and the “Percentage of time spent in the open arms (% TO), trend” value is on record as “trended towards reduced time in the open arms”. Besides, in the data set on Male Sprague-Dawley rats (setting [3]), the “Frequency” value is reported as “decreased the frequency of SAPs as effectively as the benzodiazepine chlordiazepoxide”.
As for `CCN[C@@H](C)Cc1ccc2c(c1)OCO2` [S-MDE, (S)—N-ethyl-3,4-methylenedioxyamphetamine], in data set [2], the “Daytime sleepiness (ESS)” value is reported as “significant improvement in lessening daytime sleepiness”, the “Clinician-rated functional impairment score (SDS)” value is on record as “significant improvement in clinician-rated functional impairment score”, the “Depression (HAM-D)” value is on record as “significant improvement depression” and the “Change in CAPS-5 assessment” value is given as “significant mean reduction in CAPS-5 assessment compared to the placebo group”. Also, the “Total dosage of drug to achieve significant mean reduction in CAPS-5” value in data set [2] is listed as “lower total dosage of drug compared to the racemic MDE-treated subgroup”. Further, in data set [2] (vs placebo-treated controls), the Adverse anxiogenic incidents entry is on record as “without a significant increase in adverse anxiogenic incidents”. The “Frequency” value with Male Sprague-Dawley rats (5 mg/kg ip) is on record as “significantly decreased the number of SAPs”. Further, the “Frequency” value in the data set on Male Sprague-Dawley rats (10 mg/kg ip) is reported as “significantly decreased the number of SAPs”. Moreover, in the data set on Male Sprague-Dawley rats (15 mg/kg ip), the “Frequency” value is listed as “significantly decreased the number of SAPs” and the “Percentage of time spent in the open arms (% TO)” value is listed as “large numerical increase in time in the open arms”. In addition, the “Frequency” value in the data set on Male Sprague-Dawley rats (20 mg/kg ip) is reported as “significantly decreased the number of SAPs”. For the same molecule, the “Percentage … (% TO), significance vs placebo” value in the data set on Male Sprague-Dawley rats is given as “did not show significant changes when compared to placebo”. For the same molecule, the “Frequency” value in the data set with Male Sprague-Dawley rats (any dose vs placebo) is listed as “did not increase the number of SAPs beyond placebo at any dose”. The “Frequency” value in the data set with Male Sprague-Dawley rats (setting [3]) is “decreased the frequency of SAPs as effectively as the benzodiazepine chlordiazepoxide”.
